Data taken from the supplement of paper PMC10307832.

Compound: CC(C)C[C@H](NC(=O)[C@H](CCc1ccccc1)NC(=O)CN1CCOCC1)C(=O)N[C@@H](Cc1ccccc1)C(=O)N[C@@H](CC(C)C)C(=O)[C@@]1(C)CO1 [Carfilzomib] + CS(=O)(=O)CCNCc1ccc(-c2ccc3ncnc(Nc4ccc(OCc5cccc(F)c5)c(Cl)c4)c3c2)o1 [Lapatinib] (partner 2 µM)
Assay: relative viability (nuclei count vs DMSO), 5 days (fraction); higher = more cells survive
Details: first compound 0.001 µM
In short: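 After 5 days of treatment, lung cancer cells in 1536-well plates were fixed and stained in a single step (final 0.05% Triton X-100, 1% formaldehyde, 1 ug/ml Hoechst) and their nuclei counted on 4× images. Treatment had been applied by pin tool the day after seeding as one drug alone or as a fixed anchor-drug dose with five library-drug doses (not always all listed) in √10 steps. Relative viability is the nuclei count of treated wells divided by that of vehicle wells, and values are medians of duplicate plates.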

Cell Line	relative viability
EMC-BAC-2	0.89
EPLC-272H	0.804
H3255	0.252
HARA	0.817
HCC-15	0.857
HCC-44	1.07
HCC-78	0.791
HCC-366	0.941
HCC-827	0.175
HOP-62	1.16
IA-LM	0.846
LC-2-ad	0.861
LCLC-97TM1	0.73
LK-2	0.673
LOU-NH91	0.767
NCI-H358	0.377
NCI-H1299	0.98
NCI-H1395	0.897
NCI-H1703	1.02
NCI-H1944	0.762
NCI-H2170	0.264
SK-MES-1	0.451

Same assay, conditions: first compound 0.003162 µM

Cell Line	relative viability
201T	0.961
A549	1.05
A-427	1.09
ABC-1	1.54
BEN	0.819
CAL-12T	0.691
COR-L23	1.16
COR-L 105	0.377
Calu-6	1.12
EBC-1	0.203
EKVX	0.416
EMC-BAC-2	0.958
EPLC-272H	1.47
H3255	0.338
HARA	0.911
HCC-15	0.872
HCC-44	0.985

Cell Line	relative viability
HCC-78	0.701
HCC-366	1.02
HCC-827	0.164
HOP-62	1.21
IA-LM	0.667
LC-2-ad	1.14
LCLC-97TM1	1.58
LK-2	1.19
LOU-NH91	0.783
NCI-H358	0.53
NCI-H1299	1.01
NCI-H1395	1.55
NCI-H1703	1.19
NCI-H1944	0.858
NCI-H2170	0.263
SK-MES-1	0.469

Same assay, conditions: first compound 0.01 µM

Cell Line	relative viability
201T	1.05
A549	0.931
A-427	1.09
ABC-1	1.2
BEN	0.854
CAL-12T	0.759
COR-L23	0.895
COR-L 105	0.386
Calu-6	1.13
EBC-1	0.208
EKVX	0.212
EMC-BAC-2	0.879
EPLC-272H	1.06
H3255	0.259
HARA	0.882
HCC-15	0.918
HCC-44	1.16

Cell Line	relative viability
HCC-78	0.9
HCC-366	0.963
HCC-827	0.166
HOP-62	1.06
IA-LM	0.434
LC-2-ad	0.984
LCLC-97TM1	0.957
LK-2	0.72
LOU-NH91	0.607
NCI-H358	0.404
NCI-H1299	0.982
NCI-H1395	0.841
NCI-H1703	0.207
NCI-H1944	0.7
NCI-H2170	0.269
SK-MES-1	0.443

Same assay, conditions: first compound 0.03162 µM

Cell Line	relative viability
201T	1.04
A549	0.359
A-427	0.972
ABC-1	0.499
BEN	0.553
CAL-12T	0.618
COR-L23	0.0642
COR-L 105	0.324
Calu-6	0.135
EBC-1	0.169
EKVX	0.183
EMC-BAC-2	0.843
EPLC-272H	0.298
H3255	0.225
HARA	0.0695
HCC-15	0.428
HCC-44	0.878

Cell Line	relative viability
HCC-78	0.165
HCC-366	0.305
HCC-827	0.258
HOP-62	0.308
IA-LM	0.0463
LC-2-ad	0.153
LCLC-97TM1	0.282
LK-2	0.226
LOU-NH91	0.309
NCI-H358	0.177
NCI-H1299	0.681
NCI-H1395	0.318
NCI-H1703	0.149
NCI-H1944	0.793
NCI-H2170	0.312
SK-MES-1	0.43

Same assay, conditions: first compound 0.1 µM

Cell Line	relative viability
201T	0.88
A549	0.0624
A-427	0.157
ABC-1	0.516
BEN	0.267
CAL-12T	0.207
COR-L23	0.0567
COR-L 105	0.289
Calu-6	0.116
EBC-1	0.144
EKVX	0.137
EMC-BAC-2	0.471
EPLC-272H	0.0991
H3255	0.296
HARA	0.0699
HCC-15	0.176
HCC-44	0.245

Cell Line	relative viability
HCC-78	0.142
HCC-366	0.0207
HCC-827	0.154
HOP-62	0.0688
IA-LM	0.081
LC-2-ad	0.12
LCLC-97TM1	0.142
LK-2	0.217
LOU-NH91	0.288
NCI-H358	0.139
NCI-H1299	0.147
NCI-H1395	0.311
NCI-H1703	0.173
NCI-H1944	0.326
NCI-H2170	0.207
SK-MES-1	0.267
